Results from patent US12662498B2 (priority 2017, dated 2026).

Test: ICH stability study of psilocybin batches (appearance, water content, purity, assay)

CN(C)CCc1c[nH]c2cccc(OP(=O)(O)O)c12 [Batch 170231]
Impurities by HPLC: RRT 1.62 (Psilocin) (T = 6 months, 2-8° C.): 0.35%
Impurities by HPLC: RRT 1.70 (T = 6 months, 2-8° C.): LT 0.05%
Impurities by HPLC: line without printed RRT (after RRT0.69) (T = 6 months, 2-8° C.): 0.07%
Impurity at RRT 1.89 (T = 6 months, 2-8° C.): LT 0.05%
Impurity at RRT 2.45 (T = 6 months, 2-8° C.): LT 0.05%
Total Impurities (T = 6 months, 2-8° C.): 0.80%
Water content by loss on drying (T = 6 months, 2-8° C.): 0.06% ^w/w % w/w
Appearance (T = 6 months, 25° C./60% RH): An off white solid.
Assay by HPLC (on a dry basis) (T = 6 months, 25° C./60% RH): 98.04% ^w/w % w/w
Chemical Purity By HPLC (T = 6 months, 25° C./60% RH): 99.19%
Impurities LT 0.05% (T = 6 months, 25° C./60% RH): 0.34%
Impurities by HPLC: RRT0.69 (T = 6 months, 25° C./60% RH): 0.06%
Impurities by HPLC: RRT 1.49 (T = 6 months, 25° C./60% RH): LT 0.05%
Impurities by HPLC: RRT 1.62 (Psilocin) (T = 6 months, 25° C./60% RH): 0.34%
Impurities by HPLC: RRT 1.70 (T = 6 months, 25° C./60% RH): LT 0.05%
Impurities by HPLC: line without printed RRT (after RRT0.69) (T = 6 months, 25° C./60% RH): 0.07%
Impurity at RRT 1.89 (T = 6 months, 25° C./60% RH): LT 0.05%
Impurity at RRT 2.45 (T = 6 months, 25° C./60% RH): LT 0.05%
Total Impurities (T = 6 months, 25° C./60% RH): 0.81%
Water content by loss on drying (T = 6 months, 25° C./60% RH): 0.32% ^w/w % w/w
Appearance (T = 6 months, 40° C./75% RH): An off white solid.
Assay by HPLC (on a dry basis) (T = 6 months, 40° C./75% RH): 100.10% ^w/w % w/w
Chemical Purity By HPLC (T = 6 months, 40° C./75% RH): 99.12%
Impurities LT 0.05% (T = 6 months, 40° C./75% RH): 0.36%
Impurities by HPLC: RRT0.69 (T = 6 months, 40° C./75% RH): 0.06%
Impurities by HPLC: RRT 1.49 (T = 6 months, 40° C./75% RH): LT 0.05%
Impurities by HPLC: RRT 1.62 (Psilocin) (T = 6 months, 40° C./75% RH): 0.38%
Impurities by HPLC: RRT 1.70 (T = 6 months, 40° C./75% RH): LT 0.05%
Impurities by HPLC: line without printed RRT (after RRT0.69) (T = 6 months, 40° C./75% RH): 0.08%
Impurity at RRT 1.89 (T = 6 months, 40° C./75% RH): LT 0.05%
Impurity at RRT 2.45 (T = 6 months, 40° C./75% RH): LT 0.05%
Total Impurities (T = 6 months, 40° C./75% RH): 0.88%
Water content by loss on drying (T = 6 months, 40° C./75% RH): 2.26% ^w/w % w/w
Appearance (T = 9 months, 2-8° C.): An off white solid.
Assay by HPLC (on a dry basis) (T = 9 months, 2-8° C.): 97.53% ^w/w % w/w
Chemical Purity By HPLC (T = 9 months, 2-8° C.): 99.16%
Impurities by HPLC: RRT0.69 (T = 9 months, 2-8° C.): LT 0.05%
Impurities by HPLC: RRT 1.49 (T = 9 months, 2-8° C.): 0.07%
Impurities by HPLC: RRT 1.62 (Psilocin) (T = 9 months, 2-8° C.): 0.06%
Impurities by HPLC: RRT 1.70 (T = 9 months, 2-8° C.): 0.37%
Impurities by HPLC: line without printed RRT (after RRT0.69) (T = 9 months, 2-8° C.): LT 0.05%
Impurity at RRT 1.89 (T = 9 months, 2-8° C.): LT 0.05%
Impurity at RRT 2.45 (T = 9 months, 2-8° C.): LT 0.05%
Total Impurities (T = 9 months, 2-8° C.): 0.84%
Water content by loss on drying (T = 9 months, 2-8° C.): 0.21% ^w/w % w/w
Appearance (T = 9 months, 25° C./60% RH): An off white solid.
Assay by HPLC (on a dry basis) (T = 9 months, 25° C./60% RH): 98.12% ^w/w % w/w
Chemical Purity By HPLC (T = 9 months, 25° C./60% RH): 99.16%
Impurities by HPLC: RRT0.69 (T = 9 months, 25° C./60% RH): LT 0.05%
Impurities by HPLC: RRT 1.49 (T = 9 months, 25° C./60% RH): 0.05%
Impurities by HPLC: RRT 1.62 (Psilocin) (T = 9 months, 25° C./60% RH): 0.06%
Impurities by HPLC: RRT 1.70 (T = 9 months, 25° C./60% RH): 0.37%
Impurities by HPLC: line without printed RRT (after RRT0.69) (T = 9 months, 25° C./60% RH): LT 0.05%
Impurity at RRT 1.89 (T = 9 months, 25° C./60% RH): LT 0.05%
Impurity at RRT 2.45 (T = 9 months, 25° C./60% RH): LT 0.05%
Total Impurities (T = 9 months, 25° C./60% RH): 0.84%
Water content by loss on drying (T = 9 months, 25° C./60% RH): 0.10% ^w/w % w/w
Appearance (T = 12 months, 2-8° C.): An off white solid.
Assay by HPLC (on a dry basis) (T = 12 months, 2-8° C.): 99.63% ^w/w % w/w
Chemical Purity By HPLC (T = 12 months, 2-8° C.): 99.25%
Impurities LT 0.05% (T = 12 months, 2-8° C.): 0.38%
Impurities by HPLC: RRT0.69 (T = 12 months, 2-8° C.): LT 0.05%
Impurities by HPLC: RRT 1.49 (T = 12 months, 2-8° C.): LT 0.05%
Impurities by HPLC: RRT 1.62 (Psilocin) (T = 12 months, 2-8° C.): 0.37%
Impurities by HPLC: RRT 1.70 (T = 12 months, 2-8° C.): LT 0.05%
Impurity at RRT 1.89 (T = 12 months, 2-8° C.): LT 0.05%
Impurity at RRT 2.45 (T = 12 months, 2-8° C.): LT 0.05%
Total Impurities (T = 12 months, 2-8° C.): 0.75%
Water content by loss on drying (T = 12 months, 2-8° C.): 0.49% ^w/w % w/w
Appearance (T = 12 months, 25° C./60% RH): An off white solid.
Assay by HPLC (on a dry basis) (T = 12 months, 25° C./60% RH): 98.97% ^w/w % w/w
Chemical Purity By HPLC (T = 12 months, 25° C./60% RH): 99.25%
Impurities LT 0.05% (T = 12 months, 25° C./60% RH): 0.38%
Impurities by HPLC: RRT0.69 (T = 12 months, 25° C./60% RH): LT 0.05%
Impurities by HPLC: RRT 1.49 (T = 12 months, 25° C./60% RH): LT 0.05%
Impurities by HPLC: RRT 1.62 (Psilocin) (T = 12 months, 25° C./60% RH): 0.37%
Impurities by HPLC: RRT 1.70 (T = 12 months, 25° C./60% RH): LT 0.05%
Impurity at RRT 2.45 (T = 12 months, 25° C./60% RH): LT 0.05%
Total Impurities (T = 12 months, 25° C./60% RH): 0.75%
Water content by loss on drying (T = 12 months, 25° C./60% RH): 0.61% ^w/w % w/w
